According to patent US12357598B2, “Treatment of neurodevelopmental disorders” (THE REGENTS OF THE UNIVERSITY OF CALIFORNIA, priority 2018, dated 2025):

Columns and labels:
ddY mice = experiment: Novel object recognition test (NORT), offspring after MIA; assay type: in vivo, mouse
Description: Experiments of TPPU in drinking water. For experiment of TPPU (synthesized at UC Davis, CA) in drinking water in juvenile and adolescent stages, TPPU (15 mg/L) or water in drinking water was given in the male offspring from P28 to P56. Subsequently, normal water was given to all groups for 4 weeks (P57-P84). Behavioral tests of adult offspring were performed during adulthood (P70-P84) after prenatal poly(I:C) injections (FIG. 4A).
For experiment of TPPU in drinking water in pregnant stages, TPPU (15 mg/L) or water in drinking water was given in the pregnant mice from E12 to P21. Subsequently, normal water was given to all groups for […] (P21-P42). Behavioral tests of offspring were performed during juvenile stage (P28-P42) after prenatal poly(I:C) injections (FIG. 6A).
Novel Object Recognition Test (NORT): Mice were habituated for 10 minutes in the box for 3 straight days. At 4th day, two objects (differing in shape and color but of similar size) were placed in the box 35.5 cm apart (symmetrically), and each animal was allowed to explore in the box for 5 minutes. […] The time that mice spent exploring each object was recorded. […] The mice were then allowed to explore freely for 5 minutes, and the time spent exploring each object was recorded. […]

parvalbumin (PV) = experiment: PV immunohistochemistry in mPFC, offspring after MIA; assay type: in vivo, mouse; conditions: adult offspring of poly(I:C)-treated mice vs saline-treated group
Description: Immunohistochemistry. Immunohistochemistry of PV was performed as reported previously (37,39,59,60). Mice were anesthetized with 5% isoflurane and sodium pentobarbital (50 mg/kg), and perfused transcardially with 10 mL of physiological saline, followed by 40 mL of ice-cold 4% paraformaldehyde in 0.1M phosphate buffer (pH 7.4). Brains were removed from the skulls and post fixed overnight at 4° C. in the same fixative. For the immunohistochemical analysis, 50 μm-thick serial, coronal sections of brain tissue were cut in ice-cold 0.01M phosphate buffered saline (pH 7.5) using a vibrating blade microtome (VT1000s, Leica Microsystems, Tokyo, Japan). Free-floating sections were treated with 0.3% H2O2 in 50 mM Tris-HCl saline (TBS) for 30 min and were blocked in TBS containing 0.2% Triton X-100 (TBST) and 1.5% normal serum for 1 h at room temperature. […] The sections were imaged, and the staining intensity of PV (or GADO immunoreactivity in the inflalimbic (IL) and prelimbic (PrL) regions of mPFC was analyzed using a light micro-scope equipped with a CCD camera (Olympus IX70, Tokyo, Japan) and the SCION IMAGE software package. Images of sections within mPFC region were captured using a 100× objective with a Keyence BZ-X710 microscope (Keyence Corporation, Osaka, Japan).

Q: What does the source list for “polyriboinosinic-polyribocytidilic acid [Poly(I:C)]”?
A: exploratory preference in NORT (ddY mice; adult offspring after prenatal poly(I:C) exposure): Decreased; exploratory preference, retention session of NORT (ddY mice; juvenile offspring, poly(I:C)+water group vs saline+water group): significantly lower; PV-IR in the PrL of mPFC (parvalbumin (PV)): significantly lower
